Experimental data published in patent US11453697B1, “Cyclic di-nucleotide compounds as sting agonists” (Merck Sharp & Dohme Corp., priority 2015, dated 2022).
Where two headings read alike, the source gives them in different places.

Tests used:
[1] = target: full-length HAQ STING (Homo sapiens (Human), UniProt Q86WV6, G230A/H232R/R293Q/R71H); assay: 3H-cGAMP filtration binding assay (HAQ STING); details: competition with tritiated cGAMP, HAQ STING membrane
Method in brief: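 Competition binding of compounds against 8 nM [3H]cGAMP working stock on Hi-Five cell membranes overexpressing full-length HAQ STING; compound and membrane preincubated 60 min at RT before ligand addition. Bound radioactivity read by filtration and scintillation counting; percent activity normalized to controls, EC50 from 4-parameter fit.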

[2] = tested on: IFN-β secretion in THP1 cells; assay: IFN-β secretion in THP1 cell culture (5 h); type: cell-based, human
Method in brief: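 THP1 cells incubated with compound for 5 h at 37 °C, 5% CO2, and secreted IFN-β in supernatant quantified by AlphaLISA. Percent effect normalised to 30 uM cGAMP positive control and 0.3% DMSO. EC50 from 4-parameter fit.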

[3] = read-out: EC50 (nM), 3H-cGAMP filtration binding assay for HAQ STING
[4] = IFN-β secretion in THP1 cell culture, 5 h, compound at 30 μM, percent activation relative to 2′3′-cGAMP
[5] = EC50 (nM), 3H-cGAMP filtration binding assay for HAQ STING

full-length HAQ STING, sequence (Q86WV6 other isoform, or with tags, fused parts or gaps, stated change not applied): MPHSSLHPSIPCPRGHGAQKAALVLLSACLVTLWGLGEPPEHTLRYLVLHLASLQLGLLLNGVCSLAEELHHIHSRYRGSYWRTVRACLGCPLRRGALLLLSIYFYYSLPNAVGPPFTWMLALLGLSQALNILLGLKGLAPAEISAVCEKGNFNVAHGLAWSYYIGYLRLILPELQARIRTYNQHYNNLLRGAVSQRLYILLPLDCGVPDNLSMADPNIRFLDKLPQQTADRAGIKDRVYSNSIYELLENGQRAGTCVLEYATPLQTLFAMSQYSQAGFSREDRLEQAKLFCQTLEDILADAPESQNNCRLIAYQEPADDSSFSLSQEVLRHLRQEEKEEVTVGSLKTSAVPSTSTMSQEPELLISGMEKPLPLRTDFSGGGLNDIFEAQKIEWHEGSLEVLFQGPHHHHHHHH

Row | EC50 [1, 3] [nM] | Structure (SMILES) | % Effect at 30 μM relative to 2′3′-cGAMP [2, 4] [%] | EC50 [1, 5] [nM] | % Effect at 30 μM relative to 2′3′-cGAMP [2] [%]
1 | 55.3 | Nc1nc2c(ncn2[C@@H]2O[C@@H]3COP(=O)(O)O[C@H]4[C@@H](O)[C@H](n5nnc6c(N)ncnc65)O[C@@H]4COP(=O)(O)O[C@@H]2[C@@H]3O)c(=O)[nH]1 [Example 55, 2-amino-9-[(5R,7R,8R,12aR,14R,15R,15aS,16R)-14-(7-amino-3H-[1,2,3]triazolo[4,5-d]pyrimidin-3-yl)-2,10,15,16-tetrahydroxy-2,10-dioxidooctahydro-12H-5,8-methanofuro[3,2-l][1,3,6,9,11,2,10]pentaoxadiphosphacyclotetradecin-7-yl]-1,9-dihydro-6H-purin-6-one] | 83 |  | 
2 |  | Nc1nc2c(ncn2[C@@H]2O[C@@H]3COP(O)(=S)O[C@H]4C[C@H](n5cnc6c(=O)[nH]cnc65)O[C@@H]4COP(O)(=S)O[C@@H]2[C@@H]3F)c(=O)[nH]1 (single isomer, unassigned) [Example 306] |  | 3.6 | 153
3 |  | Nc1nc2c(ncn2[C@@H]2O[C@@H]3CO[P@@](=O)(S)O[C@H]4C[C@H](n5cnc6c(=O)[nH]cnc65)O[C@@H]4CO[P@@](=O)(S)O[C@@H]2[C@@H]3F)c(=O)[nH]1 (single isomer, unassigned) [Example 307] |  | < 1 | 174
4 | 5.1 | Nc1nc2c(ncn2[C@@H]2O[C@@H]3COP(=O)(O)O[C@H]4[C@@H](O)[C@H](n5cnc6c(O)ncnc65)O[C@@H]4COP(=O)(O)O[C@@H]2[C@@H]3F)c(=O)[nH]1 [Example 300, 2-amino-9-[(5R,7R,8S,12aR,14R,15R,15aS,16R)-16-fluoro-2,10,15-trihydroxy-14-(6-hydroxy-9H-purin-9-yl)-2,10-dioxidooctahydro-12H-5,8-methanofuro[3,2-l] [1,3,6,9,11,2,10]pentaoxadiphosphacyclo-tetradecin-7-yl]-1,9-dihydro-6H-purin-6-one] | 86 |  | 
5 | 24.6 | Nc1nc2c(ncn2[C@@H]2O[C@@H]3COP(=O)(O)O[C@H]4[C@@H](O)[C@H](n5cnc6c(N)nc(F)nc65)O[C@@H]4COP(=O)(O)O[C@@H]2[C@@H]3O)c(=O)[nH]1 [Example 34, 2-amino-9-[(5R,7R,8R,12aR,14R,15R,15aS,16R)-14-(6-amino-2-fluoro-9H-purin-9-yl)-2,10,15,16-tetrahydroxy-2,10-dioxidooctahydro-12H-5,8-methanofuro[3,2-l][1,3,6,9,11,2,10]pentaoxadiphosphacyclotetradecin-7-yl]-1,9-dihydro-6H-purin-6-one] | 125 |  | 
6 | 6.2 | Nc1nc2c(ncn2[C@@H]2O[C@@H]3COP(=O)(S)O[C@H]4[C@H](F)[C@H](n5cnc6c(=O)[nH]cnc65)O[C@@H]4COP(=O)(S)O[C@@H]2C3)c(=O)[nH]1 (single isomer, unassigned) [Example 318] | 150 |  | 
7 | 3.1 | Nc1ncnc2c1ncn2[C@@H]1O[C@@H]2COP(=O)(O)O[C@@H]3[C@H](O)[C@@H](COP(=O)(O)O[C@H]2[C@H]1O)O[C@H]3n1cnc2c(=O)[nH]ccc21 [Example 58, 1-[(5R,7R,8R,12aR,14R,15R,15aS,16R)-14-(6-amino-9H-purin-9-yl)-2,10,15,16-tetrahydroxy-2,10-dioxidooctahydro-12H-5,8-methanofuro[3,2-l][1,3,6,9,11,2,10]pentaoxadiphosphacyclotetradecin-7-yl]-1,5-dihydro-4H-imidazo[4,5-c]pyridin-4-one] | 92 |  | 
8 | 6.6 | Nc1nc2c(ncn2[C@@H]2O[C@@H]3COP(=O)(O)O[C@H]4[C@@H](F)[C@H](n5cnc6c(=O)[nH]cnc65)O[C@@H]4COP(=O)(O)O[C@@H]2C3)c(=O)[nH]1 [Example 294, 2-amino-9-[(5S,7R,8R,12aR,14R,15R,15aR)-15-fluoro-2,10-dihydroxy-2,10-dioxido-14-(6-oxo-1,6-dihydro-9H-purin-9-yl)octahydro-12H-5,8-methanofuro[3,2-l] [1,3,6,9,11,2,10]pentaoxadiphosphacyclo-tetradecin-7-yl]-1,9-dihydro-6H-purin-6-one] | 84 |  | 
9 | 112 | Nc1nc2c(ncn2[C@@H]2O[C@@H]3COP(=O)(O)OC4C(O)[C@H](c5cnn6c(=O)[nH]cnc56)O[C@@H]4COP(=O)(O)OC2C3O)c(=O)[nH]1 (stereo in doubt) [Example 321, 8-[(5R,7R,8R,12aR,14S,15S,15aS,16R)-7-(2-amino-6-oxo-1,6-dihydro-9H-purin-9-yl)-2,10,15,16-tetrahydroxy-2,10-dioxidooctahydro-12H-5,8-methanofuro[3,2-l][1,3,6,9,11,2,10]pentaoxadiphosphacyclotetradecin-14-yl]pyrazolo[1,5-a][1,3,5]triazin-4(3H)-one] | 36 |  | 
10 | 620 | Nc1nc2c(ccn2[C@@H]2O[C@@H]3COP(=O)(O)O[C@H]4[C@@H](O)[C@H](n5ccc6c(N)ncnc65)O[C@@H]4COP(=O)(O)O[C@@H]2[C@@H]3O)c(=O)[nH]1 [Example 37, 2-amino-7-[(5R,7R,8R,12aR,14R,15R,15aS,16R)-14-(4-amino-7H-pyrrolo[2,3-d]pyrimidin-7-yl)-2,10,15,16-tetrahydroxy-2,10-dioxidooctahydro-12H-5,8-methanofuro[3,2-l][1,3,6,9,11,2,10]pentaoxadiphosphacyclotetradecin-7-yl]-3,7-dihydro-4H-pyrrolo[2,3-d]pyrimidin-4-one] | 57 |  | 
11 | 5.8 | Nc1ncnc2c1ncn2[C@@H]1O[C@@H]2COP(=O)(O)O[C@@H]3[C@H](O)[C@@H](COP(=O)(O)O[C@H]2[C@H]1O)O[C@H]3c1n[nH]c2c(=O)[nH]cnc12 [Example 74, 3-[(5R,7S,8R,12aR,14R,15R,15aS,16R)-14-(6-amino-9H-purin-9-yl)-2,10,15,16-tetrahydroxy-2,10-dioxidooctahydro-12H-5,8-methanofuro[3,2-l][1,3,6,9,11,2,10]pentaoxadiphosphacyclotetradecin-7-yl]-1,6-dihydro-7H-pyrazolo[4,3-d]pyrimidin-7-one] | 57 |  | 
12 | 68.8 | Nc1nc2c(ncn2[C@@H]2O[C@@H]3COP(=O)(O)O[C@H]4[C@H](Cl)[C@H](n5cnc6c(=O)[nH]cnc65)O[C@@H]4COP(=O)(O)O[C@@H]2[C@@H]3O)c(=O)[nH]1 [Example 322, 2-amino-9-[(5R,7R,8R,12aR,14R, 15S,15aR,16R)-15-chloro-2,10,16-trihydroxy-2,10-dioxido-14-(6-oxo-1,6-dihydro-9H-purin-9-yl)octahydro-12H-5,8-methanofuro[3,2-l][1,3,6,9,11,2,10]pentaoxadiphosphacyclotetradecin-7-yl]-1,9-dihydro-6H-purin-6-one] | 41 |  | 
13 | 438 | COCCc1ncnc2c1ncn2[C@@H]1O[C@@H]2COP(=O)(O)O[C@@H]3[C@H](O)[C@@H](COP(=O)(O)O[C@H]2[C@H]1O)O[C@H]3n1cnc2c(=O)[nH]c(N)nc21 [Example 57, 2-amino-9-{(5R,7R,8R,12aR,14R,15R,15aS,16R)-2,10,15,16-tetrahydroxy-14-[6-(2-methoxyethyl)-9H-purin-9-yl]-2,10-dioxidooctahydro-12H-5,8-methanofuro[3,2-l][1,3,6,9,11,2,10]pentaoxadiphosphacyclotetradecin-7-yl}-1,9-dihydro-6H-purin-6-one] | 7 |  | 
